Measured values published in patent publication US11173177B2, “Compounds for treatment of lipoprotein metabolism disorders” (Aarhus Universitet, priority 2016, dated 2021).

Assays:
PCSK9 [1] = assay: BIACORE interference assay, PCSK9 binding to heparin-albumin sensor chip; parameters: species or system human; settings: 100 nM PCSK9 preincubated with 0 nM-10 μM compound; read-out: estimated IC50, inhibition of PCSK9 binding to heparin-albumin sensor chip
Protocol: BIACORE analysis using sensor chips coupled with either albumin (Sigma A4503) or heparin-albumin (Sigma H0403) were used to evaluate the interaction between PCSK9 and heparin. […] An interference assay using BIACORE analysis was implemented to assess the binding between compound (X) and PCSK9. Solutions of 100 nM PCSK9 was incubated with increasing concentrations of compound (X) (0 nM, 10 nM, 100 nM, 1 μM and 10 μM), the solutions were then infused over the sensor chip coupled with heparin-albumin.

PCSK9 [2] = assay: Heparin-sepharose binding assay (free PCSK9 by ELISA); parameters: species or system human; settings: 500-200 μg/ml, PCSK9 1 μg/ml, over night 4° C.
Protocol: Compound (X) inhibition of PCSK9 binding to Heparin/Heparan sulfate was tested in a Heparin-sepharose binding assay. Heparin-sepharose beads (2 μl) were incubated with PCSK9 (1 μg/ml) with increasing concentrations of compound (X) (0-500 μg/ml) in a total volume of 150 μl 10 mM NaH2PO4. After over night rotation at 4° C., beads were pelleted and the concentration of non-precipitated PCSK9 (free PCSK9) in supernatant was evaluated by ELISA. The concentration of free PCSK9 in each sample was normalised to the PCSK9 level in a sample without Heparin-sepharose beads (input control). As positive control was included a sample with soluble heparin (5 mg/ml) (FIG. 16 A).
Sucrose octasulfate (FIG. 21A) inhibition of PCSK9 binding to Heparin/Heparan sulfate was tested in a Heparin-sepharose binding assay. Heparin-sepharose beads (2 μl) were incubated with PCSK9 (1 μg/ml) and increasing concentrations of sucrose octasulfate (0-500 μg/ml) in a total volume of 150 μl 10 mM NaH2PO4. After over night rotation at 4° C., beads were pelleted and the concentration of non-precipitated PCSK9 (free PCSK9) in supernatant was evaluated by ELISA). Percent free PCSK9 was calculated with respect to the PCSK9 concentration in a sample without Heparin-sepharose beads (input control) (FIG. 21B).

LDLR in HepG2 cells = assay: LDLR levels in HepG2 cells by Western blotting and densitometry; format: cell-based, human; settings: 0-200 μg/ml, 24 h
Protocol: In the heparin mimetic class of modified polysaccharides compounds dextran sulfate (FIG. 9 A-B) and pentosan (FIG. 9 D-E) were tested in a HepG2 based in vitro cell assay. After overnight incubation LDLR levels were evaluated by Western blotting showing a concentration dependent increase of LDLR upon treatment with dextran sulfate (0-200 μg/ml) with up to 3-fold up regulation of LDLR.
Control cells were incubated without additives (negative control) or 500 μg/ml heparin (positive control). LDLR levels were calculated with respect to the level found in lysate of HepG2 cells incubated without additives.
HepG2 cells were incubated with 0-200 μg/ml of heterogeneously sulfated hexamer or 18-mer oligosaccharides containing on average 1,3 sulfates per disaccharide. After over night incubation cells were harvested and the cellular level of LDLR was analyzed by Western blotting (FIG. 17 A) and quantified by densitometry (FIG. 17 B).

liver LDLR = assay: Liver LDLR levels in mice after intravenous PCSK9 injection (Western blot); format: in vivo; settings: inhibitor i.v. 60 min prior PCSK9 (10 μg); compound (X) 0.13 mg/kg, Evolocumab 8 mg/kg; PCSK9 without inhibitor: 50% decrease
Protocol: To test the effect of enzymatic removal of heparan sulfate GAGs on PCSK9 activity in vivo 10-12 week-old male BALB6/cJRj mice were infused with heparinase I (30 U) administered through a tail vein catheter 5 min prior injection of PCSK9 (10 μg). In control mice the heparinase injection and/or the PCSK9 injection were replaced with an injection of 0.9% saline. During heparinase infusion, mice were lightly anaesthetized with isoflurane continuously administered through a mask.
Mice (BALB6/cJRj) were subjected to a single intravenous administration (tail vein) of 10 μg human recombinant PCSK9 alone or in combination with heparin (50 U). One hour post injection mice were sacrificed and liver tissues were collected.
Mice (BALB6/cJRj) were subjected to a single intravenous (tail vein) administration of 3.2 μg compound (X) 60 minutes prior injection with PCSK9 (10 μg). PCSK9 induced degradation of liver LDLR was assessed 60 min post PCSK9 injection by Western blotting and quantified by densitometry (FIG. 16 C). Control mice were injected with NaCl or control inhibitor Evolocumab (200 μg), commercially available PCSK9 inhibitory monoclonal antibody (Amgen). LDLR levels were calculated with respect to LDLR level in mice injected with NaCl alone.

IC50 (PCSK9 [1]): ~50 nM
inhibition of PCSK9 interaction with Heparin-sepharose (PCSK9 [2]): completely inhibited
Compound: CC(C)CCC[C@@H](C)[C@H]1CC[C@H]2[C@@H]3CC[C@H]4C[C@@H](O[C@@H]5O[C@H](COS(=O)(=O)[O-])[C@@H](O[C@H]6O[C@H](COS(=O)(=O)[O-])[C@@H](O[C@H]7O[C@H](COS(=O)(=O)[O-])[C@@H](O[C@H]8O[C@H](COS(=O)(=O)[O-])[C@@H](OS(=O)(=O)[O-])[C@H](OS(=O)(=O)[O-])[C@H]8OS(=O)(=O)[O-])[C@H](OS(=O)(=O)[O-])[C@H]7OS(=O)(=O)[O-])[C@H](OS(=O)(=O)[O-])[C@H]6OS(=O)(=O)[O-])[C@H](OS(=O)(=O)[O-])[C@H]5OS(=O)(=O)[O-])CC[C@]4(C)[C@H]3CC[C@]12C.[Na+].[Na+].[Na+].[Na+].[Na+].[Na+].[Na+].[Na+].[Na+].[Na+].[Na+].[Na+].[Na+] [compound (X), 3β-cholestanyl 2,3,4,6-tetra-O-sulfo-α-D-glucopyranosyl-(1→4)-2,3,6-tri-O-sulfo-α-D-glucopyranosyl-(1→4)-2,3,6-tri-O-sulfo-α-Dglucopyranosyl-(1→4)-2,3,6-tri-O-sulfo-β-D-glucopyranoside tridecasodium salt]
LDLR levels with respect to cells incubated without additives (LDLR in HepG2 cells): up to 12 times
LDLR levels, concentration dependence (LDLR in HepG2 cells): concentration dependent increased levels of LDLR
decrease of liver LDLR level after PCSK9 injection (liver LDLR): no decrease was observed
